Laboratory results taken from ChEMBL document CHEMBL4304811, “Development of a Water-Soluble Indolylmaleimide Derivative IM-93 Showing Dual Inhibition of Ferroptosis and NETosis” (ACS Med Chem Lett, 2019).

Legend:
[1] = biological target: Serine/threonine-protein kinase MAK (Homo sapiens) (UniProt P20794); assay: Binding affinity to wild-type human partial length MAK (M1 to P314 residues) expressed in bacterial expression system assessed as residual binding level at 10 uM by Kinomescan method relative to control
Serine/threonine-protein kinase MAK (Homo sapiens), sequence (P20794 whole entry, the tested form may be a part): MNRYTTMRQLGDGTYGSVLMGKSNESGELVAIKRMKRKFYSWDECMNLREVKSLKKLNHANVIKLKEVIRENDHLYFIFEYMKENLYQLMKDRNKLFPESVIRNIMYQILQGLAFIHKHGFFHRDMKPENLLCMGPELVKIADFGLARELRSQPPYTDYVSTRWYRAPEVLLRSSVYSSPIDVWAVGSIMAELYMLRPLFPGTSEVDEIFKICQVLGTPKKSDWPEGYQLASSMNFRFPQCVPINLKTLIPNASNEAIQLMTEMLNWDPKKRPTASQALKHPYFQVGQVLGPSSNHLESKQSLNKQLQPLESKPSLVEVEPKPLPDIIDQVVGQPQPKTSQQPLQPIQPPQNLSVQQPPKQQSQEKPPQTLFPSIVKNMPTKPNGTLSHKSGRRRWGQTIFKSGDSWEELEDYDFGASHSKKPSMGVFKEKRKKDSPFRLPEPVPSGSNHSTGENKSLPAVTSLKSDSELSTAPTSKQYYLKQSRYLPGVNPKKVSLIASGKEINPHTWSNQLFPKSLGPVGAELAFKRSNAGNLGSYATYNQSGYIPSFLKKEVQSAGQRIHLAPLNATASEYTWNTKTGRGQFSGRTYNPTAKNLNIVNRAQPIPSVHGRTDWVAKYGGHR

[2] = biological target: Tyrosine-protein kinase CSK (Homo sapiens) (UniProt P41240); assay: Binding affinity to wild-type human full length CSK (M1 to L450 residues) expressed in bacterial expression system assessed as residual binding level at 10 uM by Kinomescan method relative to control
Tyrosine-protein kinase CSK (Homo sapiens), sequence (P41240 2-450 limits assumed): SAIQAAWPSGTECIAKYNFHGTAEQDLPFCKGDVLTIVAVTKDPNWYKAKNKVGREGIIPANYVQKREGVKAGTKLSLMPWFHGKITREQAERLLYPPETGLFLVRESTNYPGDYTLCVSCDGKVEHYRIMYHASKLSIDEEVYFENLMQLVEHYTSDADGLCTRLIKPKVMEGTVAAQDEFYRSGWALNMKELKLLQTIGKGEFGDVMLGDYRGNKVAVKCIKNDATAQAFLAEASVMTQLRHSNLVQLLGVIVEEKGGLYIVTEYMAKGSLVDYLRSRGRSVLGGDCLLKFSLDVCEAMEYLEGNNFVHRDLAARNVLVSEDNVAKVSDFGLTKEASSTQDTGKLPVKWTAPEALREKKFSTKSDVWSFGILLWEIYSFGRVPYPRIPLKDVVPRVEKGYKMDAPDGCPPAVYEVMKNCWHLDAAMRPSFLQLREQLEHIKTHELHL

[3] = system: Epidermal growth factor receptor (Homo sapiens), P00533 [G719C]; assay: Binding affinity to human partial length EGFR G719C mutant (R669 to V1011 residues) expressed in bacterial expression system assessed as residual binding level at 10 uM by Kinomescan method relative to control
[4] = biological target: Serine/threonine-protein kinase PLK1 (Homo sapiens) (UniProt P53350); assay: Binding affinity to wild-type human partial length PLK1 (A33 to F325 residues) expressed in mammalian expression system assessed as residual binding level at 10 uM by Kinomescan method relative to control
[5] = biological target: Inhibitor of nuclear factor kappa-B kinase subunit beta (Homo sapiens) (UniProt O14920); assay: Binding affinity to wild-type human full length IKK-beta (M1 to S756 residues) expressed in mammalian expression system assessed as residual binding level at 10 uM by Kinomescan method relative to control
[6] = biological target: Serine/threonine-protein kinase ULK2 (Homo sapiens) (UniProt Q8IYT8); assay: Binding affinity to wild-type human partial length ULK2 (M1 to S301 residues) expressed in mammalian expression system assessed as residual binding level at 10 uM by Kinomescan method relative to control
[7] = biological target: Dual specificity mitogen-activated protein kinase kinase 6 (Homo sapiens) (UniProt P52564); assay: Binding affinity to wild-type human partial length MEK6 (K36 to D334 residues) expressed in bacterial expression system assessed as residual binding level at 10 uM by Kinomescan method relative to control
Dual specificity mitogen-activated protein kinase kinase 6 (Homo sapiens), sequence (P52564 whole entry, the tested form may be a part): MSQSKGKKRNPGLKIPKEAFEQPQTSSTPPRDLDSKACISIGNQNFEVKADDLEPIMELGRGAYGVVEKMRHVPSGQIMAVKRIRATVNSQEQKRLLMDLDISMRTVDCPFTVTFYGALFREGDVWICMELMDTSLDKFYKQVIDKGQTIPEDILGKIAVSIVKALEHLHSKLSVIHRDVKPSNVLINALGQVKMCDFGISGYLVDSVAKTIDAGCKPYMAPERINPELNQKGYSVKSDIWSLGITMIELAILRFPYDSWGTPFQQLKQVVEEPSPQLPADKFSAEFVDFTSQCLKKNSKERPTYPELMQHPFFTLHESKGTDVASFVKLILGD

[8] = biological target: TGF-beta receptor type-2 (Homo sapiens) (UniProt P37173); assay: Binding affinity to wild-type human partial length TGFBR2 (I218 to K567 residues) expressed in bacterial expression system assessed as residual binding level at 10 uM by Kinomescan method relative to control
TGF-beta receptor type-2 (Homo sapiens), sequence (P37173 whole entry, the tested form may be a part): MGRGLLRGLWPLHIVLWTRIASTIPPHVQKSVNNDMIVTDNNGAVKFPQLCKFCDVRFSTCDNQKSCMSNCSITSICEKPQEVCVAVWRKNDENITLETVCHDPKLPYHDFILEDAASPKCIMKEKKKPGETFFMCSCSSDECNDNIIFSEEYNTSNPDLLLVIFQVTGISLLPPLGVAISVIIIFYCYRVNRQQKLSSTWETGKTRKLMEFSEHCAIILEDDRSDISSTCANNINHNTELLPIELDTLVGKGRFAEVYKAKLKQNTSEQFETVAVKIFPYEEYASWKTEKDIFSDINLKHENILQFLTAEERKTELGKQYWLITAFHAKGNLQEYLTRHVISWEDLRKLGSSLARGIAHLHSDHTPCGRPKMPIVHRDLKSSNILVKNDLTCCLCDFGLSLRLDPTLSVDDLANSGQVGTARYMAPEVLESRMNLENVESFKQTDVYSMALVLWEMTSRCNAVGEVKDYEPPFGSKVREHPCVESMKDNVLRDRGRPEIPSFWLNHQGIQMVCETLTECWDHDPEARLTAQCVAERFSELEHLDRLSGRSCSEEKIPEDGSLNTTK

[9] = system: Serine/threonine-protein kinase B-raf (Homo sapiens), P15056 [V600E]; assay: Binding affinity to human partial length BRAF V600E mutant (S429 to E741 residues) expressed in mammalian expression system assessed as residual binding level at 10 uM by Kinomescan method relative to control
[10] = biological target: RAC-beta serine/threonine-protein kinase (Homo sapiens) (UniProt P31751); assay: Binding affinity to wild-type human partial length AKT2 expressed in bacterial expression system assessed as residual binding level at 10 uM by Kinomescan method relative to control
[11] = biological target: Cyclin-dependent kinase-like 1 (Homo sapiens) (UniProt Q00532); assay: Binding affinity to wild-type human full length CDKL1 (M1 to I358 residues) expressed in mammalian expression system assessed as residual binding level at 10 uM by Kinomescan method relative to control
[12] = system: Proto-oncogene tyrosine-protein kinase receptor Ret (Homo sapiens), P07949 [V804L]; assay: Binding affinity to human partial length RET V804L mutant (E713 to D1014 residues) expressed in bacterial expression system assessed as residual binding level at 10 uM by Kinomescan method relative to control
[13] = biological target: Tyrosine-protein kinase SYK (Homo sapiens) (UniProt P43405); assay: Binding affinity to wild-type human partial length SYK (D354 to N635 residues) expressed in bacterial expression system assessed as residual binding level at 10 uM by Kinomescan method relative to control
[14] = biological target: Mitogen-activated protein kinase 10 (Homo sapiens) (UniProt P53779); assay: Binding affinity to wild-type human partial length JNK3 (V28 to Q422 residues) expressed in mammalian expression system assessed as residual binding level at 10 uM by Kinomescan method relative to control
[15] = biological target: Serine/threonine-protein kinase 33 (Homo sapiens) (UniProt Q9BYT3); assay: Binding affinity to wild-type human full length STK33 (M1 to L514 residues) expressed in bacterial expression system assessed as residual binding level at 10 uM by Kinomescan method relative to control
Serine/threonine-protein kinase 33 (Homo sapiens), sequence (Q9BYT3 whole entry, looked up, the tested form may be a part): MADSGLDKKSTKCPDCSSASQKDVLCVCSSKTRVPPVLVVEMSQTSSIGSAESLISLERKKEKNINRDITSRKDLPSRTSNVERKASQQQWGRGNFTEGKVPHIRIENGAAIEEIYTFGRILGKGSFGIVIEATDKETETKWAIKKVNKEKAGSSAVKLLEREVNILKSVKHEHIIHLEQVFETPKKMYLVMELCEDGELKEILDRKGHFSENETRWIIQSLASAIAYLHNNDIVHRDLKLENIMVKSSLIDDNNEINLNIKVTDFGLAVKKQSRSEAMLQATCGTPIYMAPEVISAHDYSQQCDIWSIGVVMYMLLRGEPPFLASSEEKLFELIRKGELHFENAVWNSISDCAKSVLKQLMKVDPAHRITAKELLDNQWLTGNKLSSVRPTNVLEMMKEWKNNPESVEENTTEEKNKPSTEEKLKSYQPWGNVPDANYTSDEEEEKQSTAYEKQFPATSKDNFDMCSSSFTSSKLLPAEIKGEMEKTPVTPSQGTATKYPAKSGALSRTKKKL

[16] = biological target: Homeodomain-interacting protein kinase 3 (Homo sapiens) (UniProt Q9H422); assay: Binding affinity to wild-type human partial length HIPK3 (M153 to N562 residues) expressed in mammalian expression system assessed as residual binding level at 10 uM by Kinomescan method relative to control
[17] = biological target: RAC-alpha serine/threonine-protein kinase (Homo sapiens) (UniProt P31749); assay: Binding affinity to wild-type human partial length AKT1 expressed in bacterial expression system assessed as residual binding level at 10 uM by Kinomescan method relative to control
[18] = biological target: Serine/threonine-protein kinase WNK3 (Homo sapiens) (UniProt Q9BYP7); assay: Binding affinity to wild-type human partial length WNK3 (M1 to D434 residues) expressed in mammalian expression system assessed as residual binding level at 10 uM by Kinomescan method relative to control
[19] = biological target: Cyclin-dependent kinase 4/cyclin D1 (Homo sapiens) (UniProt P11802+P24385); assay: Binding affinity to wild-type human full length CDK4/cyclinD1 (M1 to E303 residues) expressed in mammalian expression system assessed as residual binding level at 10 uM by Kinomescan method relative to control
[20] = biological target: Homeodomain-interacting protein kinase 2 (Homo sapiens) (UniProt Q9H2X6); assay: Binding affinity to wild-type human partial length HIPK2 (M153 to S564 residues) expressed in mammalian expression system assessed as residual binding level at 10 uM by Kinomescan method relative to control
Homeodomain-interacting protein kinase 2 (Homo sapiens), sequence (Q9H2X6 whole entry, looked up, the tested form may be a part, canonical isoform): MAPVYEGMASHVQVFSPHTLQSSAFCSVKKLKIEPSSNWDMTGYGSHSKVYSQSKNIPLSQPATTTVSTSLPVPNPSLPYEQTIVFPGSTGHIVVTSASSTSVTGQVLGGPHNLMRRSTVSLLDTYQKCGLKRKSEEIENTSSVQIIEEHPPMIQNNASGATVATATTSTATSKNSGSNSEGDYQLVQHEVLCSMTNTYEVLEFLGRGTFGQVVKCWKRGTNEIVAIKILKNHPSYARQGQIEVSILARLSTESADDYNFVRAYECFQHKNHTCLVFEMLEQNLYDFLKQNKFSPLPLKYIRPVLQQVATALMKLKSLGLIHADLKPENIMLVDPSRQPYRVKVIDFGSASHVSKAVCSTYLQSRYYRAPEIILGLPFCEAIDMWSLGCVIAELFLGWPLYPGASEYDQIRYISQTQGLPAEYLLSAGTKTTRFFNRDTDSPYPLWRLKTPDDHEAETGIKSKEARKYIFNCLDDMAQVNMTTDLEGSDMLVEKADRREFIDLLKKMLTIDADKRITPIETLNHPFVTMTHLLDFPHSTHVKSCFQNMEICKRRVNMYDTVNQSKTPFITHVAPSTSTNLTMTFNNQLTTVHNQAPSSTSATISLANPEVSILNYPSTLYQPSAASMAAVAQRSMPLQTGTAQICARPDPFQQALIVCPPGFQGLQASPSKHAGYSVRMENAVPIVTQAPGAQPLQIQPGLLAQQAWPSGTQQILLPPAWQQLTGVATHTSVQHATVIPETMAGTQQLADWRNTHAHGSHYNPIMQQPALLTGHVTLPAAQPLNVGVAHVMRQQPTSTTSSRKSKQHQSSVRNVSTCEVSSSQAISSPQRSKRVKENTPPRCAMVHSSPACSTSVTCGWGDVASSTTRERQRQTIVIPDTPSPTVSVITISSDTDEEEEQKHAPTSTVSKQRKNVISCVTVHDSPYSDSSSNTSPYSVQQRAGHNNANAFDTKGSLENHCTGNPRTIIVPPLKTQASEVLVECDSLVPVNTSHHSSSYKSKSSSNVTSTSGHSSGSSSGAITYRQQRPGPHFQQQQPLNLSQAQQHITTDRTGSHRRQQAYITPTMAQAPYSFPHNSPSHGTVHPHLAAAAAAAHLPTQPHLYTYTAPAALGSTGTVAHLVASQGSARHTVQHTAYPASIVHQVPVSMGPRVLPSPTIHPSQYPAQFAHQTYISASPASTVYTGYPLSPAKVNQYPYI

[21] = system: Phosphatidylinositol 4,5-bisphosphate 3-kinase catalytic subunit alpha isoform (Homo sapiens), P42336 [H1047L]; assay: Binding affinity to human partial length PIK3CA H1047L mutant (R108 to N1068 residues) expressed in mammalian expression system assessed as residual binding level at 10 uM by Kinomescan method relative to control
[22] = system: Phosphatidylinositol 4,5-bisphosphate 3-kinase catalytic subunit alpha isoform (Homo sapiens), P42336 [E545A]; assay: Binding affinity to human partial length PIK3CA E545A mutant (R108 to N1068 residues) expressed in mammalian expression system assessed as residual binding level at 10 uM by Kinomescan method relative to control
[23] = biological target: Citron Rho-interacting kinase (Homo sapiens) (UniProt O14578); assay: Binding affinity to wild-type human partial length CIT (M68 to E432 residues) expressed in bacterial expression system assessed as residual binding level at 10 uM by Kinomescan method relative to control
[24] = biological target: Tyrosine-protein kinase ABL1 (Homo sapiens) (UniProt P00519); assay: Binding affinity to wild-type human phosphorylated ABL1 (S229 to K512 residues) expressed in mammalian expression system assessed as residual binding level at 10 uM by Kinomescan method relative to control
Tyrosine-protein kinase ABL1 (Homo sapiens), sequence (P00519 whole entry, the tested form may be a part): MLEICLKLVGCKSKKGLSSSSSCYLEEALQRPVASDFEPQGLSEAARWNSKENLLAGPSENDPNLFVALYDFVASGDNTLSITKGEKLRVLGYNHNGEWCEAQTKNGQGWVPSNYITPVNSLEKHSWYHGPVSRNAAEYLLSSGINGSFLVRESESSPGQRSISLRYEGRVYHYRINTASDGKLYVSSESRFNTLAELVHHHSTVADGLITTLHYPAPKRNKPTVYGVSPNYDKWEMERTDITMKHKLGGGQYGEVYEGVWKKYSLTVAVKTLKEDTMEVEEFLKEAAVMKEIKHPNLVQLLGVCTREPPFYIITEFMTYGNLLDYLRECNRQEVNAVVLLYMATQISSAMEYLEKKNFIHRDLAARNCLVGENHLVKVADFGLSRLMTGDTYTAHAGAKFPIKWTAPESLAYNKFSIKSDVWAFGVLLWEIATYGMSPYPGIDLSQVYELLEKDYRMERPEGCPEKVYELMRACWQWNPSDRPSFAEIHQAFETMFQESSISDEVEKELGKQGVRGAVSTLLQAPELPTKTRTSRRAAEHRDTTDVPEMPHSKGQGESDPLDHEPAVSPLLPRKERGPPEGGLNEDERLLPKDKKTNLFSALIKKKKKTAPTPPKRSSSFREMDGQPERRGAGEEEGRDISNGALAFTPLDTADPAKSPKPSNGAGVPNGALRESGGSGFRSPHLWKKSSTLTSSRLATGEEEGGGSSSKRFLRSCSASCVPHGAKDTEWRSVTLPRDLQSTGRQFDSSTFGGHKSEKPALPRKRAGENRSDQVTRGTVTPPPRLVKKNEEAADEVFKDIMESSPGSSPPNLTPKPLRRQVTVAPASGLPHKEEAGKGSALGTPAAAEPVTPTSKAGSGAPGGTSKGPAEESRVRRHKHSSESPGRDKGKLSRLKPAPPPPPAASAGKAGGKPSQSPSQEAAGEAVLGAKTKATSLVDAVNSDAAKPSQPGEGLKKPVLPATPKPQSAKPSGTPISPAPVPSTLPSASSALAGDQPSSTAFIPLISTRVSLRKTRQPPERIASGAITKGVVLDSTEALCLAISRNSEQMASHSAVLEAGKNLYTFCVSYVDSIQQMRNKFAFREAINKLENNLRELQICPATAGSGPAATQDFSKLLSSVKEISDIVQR

Compound `CC(C)N1C(=O)C(NCCCN(C)C)=C(c2cn(C)c3ccccc23)C1=O.Cl` has an Activity [1] of 100%, an Activity [2] of 96% and an Activity [3] of 100%. It also gave an Activity [4] of 85%, an Activity [5] of 83% and an Activity [6] of 80%. It also gave an Activity [7] of 99%, an Activity [8] of 92% and an Activity [9] of 88%. The Activity [10] was 100%, the Activity [11] was 73% and the Activity [12] was 90%. The Activity [13] was 82%, the Activity [14] was 85% and the Activity [15] was 100%. It also gave an Activity [16] of 90%, an Activity [17] of 95% and an Activity [18] of 78%. The Activity [19] was 88%, the Activity [20] was 100% and the Activity [21] was 78%. For the same compound, the Activity [22] was 95%, the Activity [23] was 84% and the Activity [24] was 92%.
